Assay results taken from US9328374B2, “Selective culture medium and method for detecting carbapenem-resistant bacteria in a test sample” (Institut National de la Sante et de la Recherche Medicale …, priority 2011, dated 2016).
Read-outs that look alike come from different tables or passages of the source.

What was measured:
Experiment in all cases: MIC of imipenem, ertapenem and meropenem
K. pneumoniae = assay type: cell-based, Klebsiella pneumoniae; details: Klebsiella pneumoniae, read-out: MIC
P. mirabilis = assay type: cell-based
C. koseri = assay type: cell-based
S. typhimurium = assay type: cell-based

With `C[C@@H](O)[C@H]1C(=O)N2C(C(=O)O)=C(S[C@@H]3CN[C@H](C(=O)Nc4cccc(C(=O)O)c4)C3)[C@H](C)[C@H]12` [ETP, ertapenem] the MIC (K. pneumoniae; K. pneumoniae LIE, KPC-2 + TEM-2 + OXA-9) was over 32 µg/mL, the MIC (K. pneumoniae; K. pneumoniae LOU, OXA-48) was 16 µg/mL and the MIC (K. pneumoniae; K. pneumoniae MAD (VIM-1 + CTX-M-3)) was 0.5 µg/mL. The MIC (K. pneumoniae; K. pneumoniae MAD, VIM-1+ CTX-M-3) was 0.5 µg/mL, the MIC (K. pneumoniae; K. pneumoniae MEK (CTX-M-15 + SHV-11)) was over 32 µg/mL and the MIC (K. pneumoniae; K. pneumoniae MEK, CTX-M-15 + SHV-11, non-carbapenemase producer, porin deficiency) was over 32 µg/mL. For the same compound, the MIC (K. pneumoniae; K. pneumoniae MUS (KPC-2 + TEM-1 + SHV-11 + SHV-12)) was 4 µg/mL, the MIC (K. pneumoniae; K. pneumoniae MUS, KPC-2 + TEM-1 + SHV-11 + SHV-12) was 4 µg/mL and the MIC (K. pneumoniae; K. pneumoniae OM2 (NDM-1 + TEM-1 + CTX-M-3 + SHV-11 + OXA-1)) was 8 µg/mL. The MIC (K. pneumoniae; K. pneumoniae OM2, NDM-1 + TEM-1 + CTX-M-3 + SHV-11 + OXA-1) was 8 µg/mL, the MIC (K. pneumoniae; K. pneumoniae OM4, NDM-1 + TEM-1 + CTX-M-15 + SHV-12 + OXA-9) was over 32 µg/mL and the MIC (K. pneumoniae; K. pneumoniae OM8, NDM-1 + TEM-1 + CTX-M-15 + SHV-11 + OXA-1) was over 32 µg/mL. The MIC (K. pneumoniae; K. pneumoniae OM11, OXA-48 + TEM-1 + CTX-M-14) was 0.75 µg/mL, the MIC (K. pneumoniae; K. pneumoniae OM13, NDM-1 + TEM-1 + CTX-M-15 + SHV-28 + OXA-1 + OXA-9) was 4 µg/mL and the MIC (K. pneumoniae; K. pneumoniae OM14, OXA-48 + TEM-1) was 1 µg/mL. The MIC (K. pneumoniae; K. pneumoniae OM15, NDM-1 + CTX-M-15 + SHV-130 + OXA-1) was 12 µg/mL, the MIC (K. pneumoniae; K. pneumoniae OM16, NDM-1 + CTX-M-15 + OXA-1 + OXA-181) was over 32 µg/mL and the MIC (K. pneumoniae; K. pneumoniae OM19, NDM-1 + CTX-M-15 + SHV-12 + OXA-1) was 24 µg/mL. For the same compound, the MIC (K. pneumoniae; K. pneumoniae OMA419 (NDM-1 + OXA-1)) was 6 µg/mL, the MIC (K. pneumoniae; K. pneumoniae OMA419, NDM-1 + OXA-1) was 6 µg/mL and the MIC (K. pneumoniae; K. pneumoniae OMA601, NDM-1 + CTX-M-15 + OXA-1 + OXA-9) was over 32 µg/mL. It also gave an MIC (K. pneumoniae; K. pneumoniae OMA (OXA-181 + CTX-M-15 + OXA-1)) of 2 µg/mL, an MIC (K. pneumoniae; K. pneumoniae OMA, OXA-181 + CTXM-15 + OXA-1) of 2 µg/mL and an MIC (K. pneumoniae; K. pneumoniae RAM (OXA-48)) of 4 µg/mL. The MIC (K. pneumoniae; K. pneumoniae RAM, OXA-48) was 4 µg/mL, the MIC (K. pneumoniae; K. pneumoniae ROB (OXA-48 + CTX-M-15 + TEM-1)) was 3 µg/mL and the MIC (K. pneumoniae; K. pneumoniae ROU (OXA-48 + CTX-M-15)) was 1.5 µg/mL. It also gave an MIC (K. pneumoniae; K. pneumoniae ROU, OXA-48 + CTX-M-15) of 1.5 µg/mL, an MIC (K. pneumoniae; K. pneumoniae SCO (OXA-48)) of 0.75 µg/mL and an MIC (K. pneumoniae; K. pneumoniae SCO, OXA-48) of 0.75 µg/mL. For the same compound, the MIC (K. pneumoniae; K. pneumoniae SHI (CTX-M-15 + TEM-1 + SHV-1)) was 1 µg/mL, the MIC (K. pneumoniae; K. pneumoniae SHI, CTX-M-15 + TEM-1 + SHV-11, non-carbapenemase producer, porin deficiency) was 1 µg/mL and the MIC (K. pneumoniae; K. pneumoniae SHM (CTX-M-15 + TEM-1 + SHV-11)) was over 32 µg/mL. It also gave an MIC (K. pneumoniae; K. pneumoniae SHM, CTX-M-15 + TEM-1 + SHV-11, non-carbapenemase producer, porin deficiency) of over 32 µg/mL, an MIC (K. pneumoniae; K. pneumoniae SIC (OXA-48 + CTX-M-15 + SHV-28)) of 1 µg/mL and an MIC (K. pneumoniae; K. pneumoniae SIC, OXA-48 + CTX-M-15 + SHV-28) of 1 µg/mL. For the same compound, the MIC (K. pneumoniae; K. pneumoniae SIM (CTX-M-15 + TEM-1 + SHV-1)) was over 32 µg/mL, the MIC (K. pneumoniae; K. pneumoniae SIM, CTX-M-15 + TEM-1 + SHV-1, non-carbapenemase producer, porin deficiency) was over 32 µg/mL and the MIC (K. pneumoniae; K. pneumoniae TAW, IMP-8 + SHV-12) was 0.5 µg/mL. For the same compound, the MIC (K. pneumoniae; K. pneumoniae TIK, OXA-48) was 2 µg/mL, the MIC (K. pneumoniae; K. pneumoniae TUR (IMP-1)) was 2 µg/mL and the MIC (K. pneumoniae; K. pneumoniae TUR, IMP-1) was 2 µg/mL. For the same compound, the MIC (K. pneumoniae; K. pneumoniae TWA, IMP-8) was 1 µg/mL, the MIC (K. pneumoniae; K. pneumoniae UK (NDM-1 + CTX-M-15 + CMY-4 + OXA-1)) was over 32 µg/mL and the MIC (K. pneumoniae; K. pneumoniae UK, NDM-1 + CTX-M-15 + CMY-4 + OXA-1) was over 32 µg/mL. It also gave an MIC (K. pneumoniae; K. pneumoniae VER, OXA-48 + TEM-1 + CTX-M-15 + SHV-11) of 2 µg/mL, an MIC (K. pneumoniae; K. pneumoniae VSG (OXA-48 + TEM-1 + CTX-M-15 + OXA-1)) of 3 µg/mL and an MIC (K. pneumoniae; K. pneumoniae VSG, OXA-48 + TEM-1 + CTX-M-15 + OXA-1) of 3 µg/mL. It also gave an MIC (K. pneumoniae; K. pneumoniae YC, KPC-2 + TEM-1 + SHV-11 + SHV-12 + OXA-9) of 24 µg/mL, an MIC (K. pneumoniae; strain K. pneumoniae 7725, SHV-1, non-carbapenemase producer) of 0.006 µg/mL and an MIC (K. pneumoniae; strain K. pneumoniae 648236, SHV-2a, non-carbapenemase producer) of 2 µg/mL. The MIC (K. pneumoniae; strain K. pneumoniae ALE, CTX-M-15 + SHV-1, non-carbapenemase producer) was over 32 µg/mL, the MIC (K. pneumoniae; strain K. pneumoniae AMS, OXA-48 + TEM-1 + CTX-M-15 + OXA-1) was 2 µg/mL and the MIC (K. pneumoniae; strain K. pneumoniae BAJ, OXA-48 + TEM-1 + CTX-M-15 + SHV-28) was 1.5 µg/mL. For the same compound, the MIC (K. pneumoniae; strain K. pneumoniae BED, CTX-M-15 + TEM-1 + SHV-11, non-carbapenemase producer) was over 32 µg/mL, the MIC (K. pneumoniae; strain K. pneumoniae BEL, OXA-48) was 4 µg/mL and the MIC (K. pneumoniae; strain K. pneumoniae BEN, OXA-48 + TEM-1 + CTX-M-15 + SHV-28) was 1 µg/mL. It also gave an MIC (K. pneumoniae; strain K. pneumoniae BER, SHV-28 + TEM-1, non-carbapenemase producer) of 4 µg/mL, an MIC (K. pneumoniae; strain K. pneumoniae ELK, OXA-48 + TEM-1 + CTX-M-15 + SHV-11) of 3 µg/mL and an MIC (K. pneumoniae; strain K. pneumoniae HOL, OXA-181 + CTX-M-15) of 4 µg/mL. It also gave an MIC (K. pneumoniae; strain K. pneumoniae MUS, KPC-2 + TEM-1 + SHV-11 + SHV-12) of 4 µg/mL, an MIC (K. pneumoniae; strain K. pneumoniae OM2, NDM-1 + TEM-1 + CTX-M-3 + SHV-11 + OXA-1) of 8 µg/mL and an MIC (K. pneumoniae; strain K. pneumoniae OMA419, NDM-1 + OXA-1) of 6 µg/mL. For the same compound, the MIC (K. pneumoniae; strain K. pneumoniae OMA, OXA-181 + CTXM-15 + OXA-1) was 2 µg/mL, the MIC (K. pneumoniae; strain K. pneumoniae ROU, OXA-48 + CTX-M-15) was 1.5 µg/mL and the MIC (K. pneumoniae; strain K. pneumoniae SCO, OXA-48) was 0.75 µg/mL. For the same compound, the MIC (K. pneumoniae; strain K. pneumoniae SIC, OXA-48 + CTX-M-15 + SHV-28) was 1 µg/mL, the MIC (K. pneumoniae; strain K. pneumoniae VSG, OXA-48 + TEM-1 + CTX-M-15 + OXA-1) was 3 µg/mL and the MIC (P. mirabilis; P. mirabilis PMA (ACC-1)) was 0.094 µg/mL. It also gave an MIC (P. mirabilis; Proteus mirabilis, P. mirabilis 1031 (CTX-M-14 + TEM-1 + SHV-11), read-out: MIC) of 0.047 µg/mL, an MIC (P. mirabilis; Proteus mirabilis, P. mirabilis 1031, CTX-M-14 + TEM-1 + SHV-11, non-carbapenemase producer, read-out: MIC) of 0.047 µg/mL and an MIC (P. mirabilis; Proteus mirabilis, P. mirabilis PMA (ACC-1), read-out: MIC) of 0.12 µg/mL. For the same compound, the MIC (P. mirabilis; Proteus mirabilis, P. mirabilis PMA, ACC-1, non-carbapenemase producer, read-out: MIC) was 0.094 µg/mL, the MIC (C. koseri; C. koseri VER (OXA-48)) was 2 µg/mL and the MIC (C. koseri; C. koseri VER, OXA-48) was 2 µg/mL. The MIC (C. koseri; Citrobacter koseri, C. koseri ROU, OXA-48, read-out: MIC) was 2 µg/mL, the MIC (C. koseri; strain C. koseri VER, OXA-48) was 2 µg/mL and the MIC (S. typhimurium; S. typhimurium 1081 (CTX-M-1)) was 0.19 µg/mL. The MIC (S. typhimurium; Salmonella enterica, S. typhimurium 1081, CTX-M-1, non-carbapenemase producer, read-out: MIC) was 0.19 µg/mL and the MIC (S. typhimurium; strain S. typhimurium 1081, CTX-M-1, non-carbapenemase producer) was 0.19 µg/mL.
